Assay results from US5760036A, “Aminediol protease inhibitors” (E. R. Squibb & Sons, Inc., priority 1995, dated 1998).
Counter-ions that a name gives are not always drawn.

Biological target: T1, HIV protease (Human immunodeficiency virus type 1 group M subtype B, UniProt P04585)
T1 construct: and purified protease
Assay: HIV Protease Assay
Assay type: biochemical
Settings: 10 μM inhibitor, 4% DMSO, 450 μM substrate, pH 5.5, 30 minutes at 37° C., RP-HPLC
Procedure: An HIV protease standard assay was performed in a 60 μl reaction medium containing 50 mM sodium acetate, pH 5.5, 100 μg/ml bovine serum albumen,450 μM substrate (H2 N-Val-Ser-Gln-Asn-(β-naphthyl-alanine)-Pro-Val-Ile-OH), and purified protease. The reaction medium was incubated for 30 minutes at 37° C., quenched by the addition of 140 μl 5% H3 PO4, then analyzed by reverse phase HPLC using UV220 detection. In a typical control assay, 7% of the substrate was hydrolyzed. Aminediol inhibitors of the present invention, listed in the following Table 1, were then employed in the assay, for which purpose they were prepared as a […] solution in DMSO, then diluted to 30 μM with 50 mM sodium acetate/bovine serum albumen. This working stock was then diluted three-fold into the protease reaction medium, for a final concentration of 10 μM inhibitor and 4% DMSO.

| Compound | HIV Protease % Inhibition at 10 μM [%] |
| --- | --- |
| CC(C)(C)OC(=O)N[C@@H](Cc1ccccc1)[C@H](O)CNC[C@@H](O)[C@H](Cc1ccccc1)NC(=O)C(O)C(F)(F)F (single isomer, unassigned; isomer b) [Compound 272, [1S-[1R*,2S*(2S*,3R*)]]-[2-Hydroxy-1-(phenylmethyl)-3-[[2-hydroxy-4-phenyl-3-[(3.3,3-trifluoro-2-hydroxy-1-oxopropyl)amino]butyl]amino]propyl]carbamic acid,1,1-dimethylethyl ester (isomer B)] | 87 |
| CC(C)(C)OC(=O)N[C@@H](Cc1ccccc1)[C@H](O)CNC[C@@H](O)[C@H](Cc1ccccc1)NC(=O)C1NC(=O)CC1(C)C (single isomer, unassigned) [Compound 266, [1S-[1R*,2S*(2S*,3R*)]]-[3-[[3-[[(3,3-Dimethyl-5-oxo-2-pyrrolidinyl)carbonyl]amino]-2-hydroxy-4-phenylbutyl]amino]-2-hydroxy-1-(phenylmethyl)propyl]carbamic acid, 1,1-dimethylethyl ester] | 69 |
| CC(C)(C)OC(=O)N[C@@H](Cc1ccccc1)[C@H](O)CNC[C@@H](O)[C@H](Cc1ccccc1)NC(=O)C(C)(O)C(F)(F)F (single isomer, unassigned; isomer b) [Compound 294, [1S-[1R*,2S*(2S*,3R*)]]-[2-Hydroxy-3-[2-hydroxy-1-oxo-2-(trifluoromethyl)propyl]amino]-4-phenylbutyl]amino]-1-(phenylmethyl)propyl]carbamic acid, 1,1-dimethylethylester (isomer B)] | 89 |
| CC(C)(C)OC(=O)N[C@@H](Cc1ccccc1)[C@H](O)CNC[C@@H](O)[C@H](Cc1ccccc1)NC(=O)C1(O)COCC1(C)C (single isomer, unassigned; isomer b) [Compound 365, [1S-[1R*,2S*(2S*,3R*)]]-[2-Hydroxy-3-[[tetrahydro-3-hydroxy-4,4-dimethyl-3-furanyl)carbonyl]amino]-4-phenylbutyl]amino]-l-(phenylmethyl)-propyl]carbamic acid, 1,1-dimethylethyl ester, Isomer B] | 72 |
| CNC(=O)C(O)(C(=O)N[C@@H](Cc1ccccc1)[C@H](O)CNC[C@@H](O)[C@H](Cc1ccccc1)NC(=O)OC(C)(C)C)C(C)(C)C (single isomer, unassigned; isomer b) [Compound 385, [1S-[1R*,2S*(2S*, 3R*)]]-[3-[[3-[[2-Hydroxy-3,3-dimethyl-2-[(methylamino)carbonyl]-1-oxobutyl]amino]-2-hydroxy-4-phenylbutyl]amino]-2-hydroxy-1-(phenylmethyl)propyl]carbamic acid, 1,1-dimethylethyl ester, isomer B] | 99 |
| CC(C)(C)OC(=O)N[C@@H](Cc1ccccc1)[C@H](O)CNC[C@@H](O)[C@H](Cc1ccccc1)NC(=O)C(C)(O)c1ccccn1 (single isomer, unassigned; isomer a) [Compound 381, [1S-[1R*,2S*(2S*, 3R*)]]-[2-Hydroxy-3-[[2-hydroxy-3-[[2-hydroxy-1-oxo-2-(2-pyridinyl)propyl]amino]-4-phenylbutyl]amino]-1-(phenylmethyl)propyl]carbamic acid, 1.1-dimethylethyl ester, isomer A] | 60 |

Same assay, conditions: pH 5.5, 10 μM inhibitor, 4% DMSO, 450 μM substrate, pH 5.5, 30 minutes at 37° C., RP-HPLC; read-out: HIV Protease % Inhibition at 10 μM

| Compound | inhibition at 10 µM [%] |
| --- | --- |
| CC(C)(C)OC(=O)N[C@@H](Cc1ccccc1)C(=O)CNC[C@@H](O)[C@H](Cc1ccccc1)NC(=O)OC(C)(C)C [Compound 193, [1S-[1R*,2S*(3R*)]]-[3-[[3-[[(1,1-Dimethylethoxy)carbonyl]amino]-2-oxo-4-phenylbutyl]amino]-2-hydroxy-1-(phenylmethyl)propyl]carbamic acid, 1,1-dimethylethyl ester] | 66 |
| CC(C)(C)OC(=O)N[C@@H](Cc1ccccc1)[C@H](O)CNC[C@@H](O)[C@H](Cc1ccccc1)NC(=O)c1ccc2ccccc2n1 [Compound 65, [1S-[1R*,2S*(2S*,3R*)]]-[2-Hydroxy-3-[[2-hydroxy-4-phenyl-3-[(2-quinolinylcarbonyl)-amino]butyl]amino]-1-(phenylmethyl)propyl]carbamic acid, 1,1-dimethylethyl ester] | 11 |
| CC(C)(C)OC(=O)N[C@@H](Cc1ccccc1)[C@H](O)CNC[C@@H](O)[C@H](Cc1ccccc1)NC(=O)OC(C)(C)CCCN [Compound 180, [1S-(1R*,2S*)]-[Iminobis[2-hydroxy-1-(phenylmethyl)-3,1-propanediyl]biscarbamic acid, 4-amino-1,1-dimethylbutyl 1,1-dimethylethyl ester, fumarate (2:3) salt] | 73 |
| CNC(=O)C(O)(C(=O)N[C@@H](Cc1ccccc1)[C@H](O)CNC[C@@H](O)[C@H](Cc1ccccc1)NC(=O)OC(C)(C)C)C(C)(C)C (single isomer, unassigned; isomer a) [Compound 384, [1S-[1R*,2S*(2S*, 3R*)]]-[3-[[3-[[2-Hydroxy-3,3-dimethyl-2-[(methylamino)carbonyl]-1-oxobutyl]amino]-2-hydroxy-4-phenylbutyl]amino]-2-hydroxy-1-(phenylmethyl)propyl]carbamic acid, 1,1-dimethylethyl ester, isomer A] | 99 |
| CC(C)(C)OC(=O)N[C@@H](Cc1ccccc1)[C@H](O)CNC[C@@H](O)[C@H](Cc1ccccc1)NC(=O)OC(CO)c1cccnc1 (stereo partly drawn) [Compound 277, [R-(R*,S*)]-[Iminobis[2-hydroxy-1-(phenylmethyl)-3,1-propanediyl)]biscarbamic acid, 1,1-dimethylethyl-2-hydroxy-1-(3-pyridinyl)ethyl ester] | 67 |
| CC(C)(C)OC(=O)NCC(O)(CNC[C@@H](O)[C@H](Cc1ccccc1)NC(=O)OC(C)(C)C)Cc1ccccc1 (stereo partly drawn) [Compound 191, [1S-(1R*,2S*)]-[3-[[3-[[(1,1-Dimethylethoxy)carbonyl]amino]-2-hydroxy-2-(phenylmethyl)propyl]amino]-2-hydroxy-1-(phenylmethyl)propyl]carbamic acid, 1,1-dimethyl-ethyl ester] | 13 |
| CC(C)(C)OC(=O)N[C@@H](Cc1ccccc1)[C@H](O)CNC[C@@H](O)[C@H](Cc1ccccc1OCc1ccccc1)NC(=O)OC(C)(C)C [Compound 348, [1S-[1R*,2S*(2S*,3R*)]]-[3-[[(3-[[(1,1-Dimethylethoxy)carbonyl]amino]-2-hydroxy-4-[2-(phenylmethoxy)phenyl]butyl]amino]-2-hydroxy-1-(phenylmethyl)propyl]carbamic acid, 1,1-dimethylethyl ester] | 99 |
| CC(C)(C)OC(=O)N[C@@H](Cc1ccccc1)[C@H](O)CNC[C@@H](O)[C@H](Cc1ccccc1)NC(=O)C1c2ccccc2CC1O (stereo partly drawn) [Compound 237, [1S-[1R*,2S*[2S*,3R*(trans)]]]-[3-[[3-[[(2,3-Dihydro-2-hydroxy-1H-inden-1-yl)carbonyl]amino]-2-hydroxy-4-phenylbutyl]amino]-2-hydroxy-1-(phenylmethyl)propyl]carbamic acid, 1,1-dimethylethyl ester] | 54 |
| CC(C)(C)OC(=O)N[C@@H](Cc1ccccc1)[C@H](O)CN[C@@H](Cc1ccccc1)C(O)CNC(=O)OCc1ccccc1 (stereo partly drawn) [Compound 186, [3S-[3R*,2(R*,S*) [2S*,3R*)]-3-[[3-(1,1-Dimethylethoxy)carbonyl]amino]-2-hydroxy-4-phenylbutyl]amino]-2-hydroxy-4-phenylbuty 1]carbamic acid, phenylmethyl ester] | 0 |
| CC(C)[C@H](N)C(=O)N[C@@H](Cc1ccccc1)[C@H](O)CNC[C@@H](O)[C@H](Cc1ccccc1)NC(=O)OC(C)(C)C [Compound 59, [S-[1R*,2S*(2S*,3R*)-N-[3 [[3-[[(1,1-Dimethylethoxy)carbonyl]amino]-2-hydroxy-4-phenylbutyl]amino]-2-hydroxy-1-(phenylmethyl)-propyl-L-valinamide] | 45 |
| CC(C)(C)OC(=O)N[C@@H](Cc1ccccc1)[C@H](O)CNC[C@@H](O)[C@H](Cc1ccccc1)NC(=O)[C@@H](NC(=O)OCc1ccccc1)c1ccccc1 [Compound 94, [1S-[1R* [1R*,2S* (2S*,3R*)]]]-[2-[[3-[[3-[[(1,1-Dimethylethoxy)carbonyl]amino]-2-hydroxy-4-phenylbutyl]amino]-2-hydroxy-1-(phenylmethyl)propyl]amino]-2-oxo-1-phenylethyl]carbamic acid, phenylmethyl ester] | 80 to 99 |
| CC(C)(C)OC(=O)N[C@@H](Cc1ccccc1)C(=O)CN(Cc1ccccc1)CC(O)[C@H](Cc1ccccc1)NC(=O)OC(C)(C)C (stereo partly drawn) [Compound 195, [1S-[1R*(3R*)]]-[3-[[3-[[(1,1-Dimethylethoxy)carbonyl]amino]-2-hydroxy-4-phenylbutyl]-(phenylmethyl)amino]-2-oxo-1-(phenylmethyl)propyl]-carbamic acid, 1,1-dimethylethyl ester] | 0 |
| CC(C)(C)OC(=O)NC[C@H](O)[C@@H](Cc1ccccc1)NC[C@@H](O)[C@H](Cc1ccccc1)NC(=O)OC(C)(C)C [Compound 187, [2S-[2R*,3S*(2S*,3R*)]]-[3-[[3-[[(1,1-Dimethylethoxy)carbonyl]amino]-2-hydroxy-4-phenylbutyl]amino]-2-hydroxy-4-phenylbutyl]carbamic acid, 1,1-dimethylethyl ester] | 28 |
